How the values were obtained:
Type in all cases: cell-based, human
Vγ9Vδ2 T cells [1] = test: Phenotypic activation of Vγ9Vδ2 T cells in HD-PBMC (CD69/CD25 expression, flow cytometry); settings: for activation of Vγ9Vδ2 T cells by ICT01 (CD25 expression): HD-PBMC treated one day with Venetoclax (0-0.1 μM), 5-Azacytidine (0-0.4 μM) prior to ICT01 for two days; for effect on the ICT01-induced upregulation of CD25 by Vγ9Vδ2 T cells: day 4, together with ICT01 1 μg/mL, Venetoclax 0-0.1 μM, 5-Azacytidine 0-0.4 μM
Protocol: Peripheral Blood Mononuclear Cells (PBMC) were isolated by Ficoll density gradient centrifugation of peripheral blood (EDTA-buffy coats) from healthy donors (HD, n=4-6), cultured in PBMC medium (RPMI 1640 Medium supplemented with 10% Fetal Bovine Serum (FBS), 1% Penicillin/Streptomycin and 1 mM Sodium Pyruvate) and treated with ICT01 or its isotype control (hIgG1S) used at 1 μg/mL in the presence or absence of increasing concentrations of Venetoclax (0-0.1 μM), 5-Azacytidine (0-0.4 μM) or the combination, or ABT-737 (0-1.875 μM), Navitoclax (0-1.875 μM) or MIK665 (0-1.875 μM). Cells were harvested on day 2, centrifuged at 1800 rpm for 5 minutes and then incubated 10 minutes at room temperature (RT) with 25 μl of FcR blocking reagent (Miltenyi Biotec) before adding 25 μL of the following antibody mix prepared in PBS+2% FBS+2 mM EDTA (FACS buffer): anti-CD4-BUV395, CD56-BV421, Vd2-PE, CD3-PE-CF594 and CD8-A700 antibodies for the identification of immune subsets, anti-CD25-BV650 and CD69-APC antibodies were added to monitor activation status of Vγ9Vδ2 T cells, and a viability marker (LIVE/DEAD™ Fixable Dead Cell Stain) was added to distinguish live from dead cells. Cells were incubated 20 minutes at room temperature (RT) and washed 2 times with FACS buffer. A Caspase3/7 Green detection reagent (ThermoFisher) was added to determine apoptosis and cells were incubated for 30 minutes at RT before flow cytometry analysis.
ICT01-induced phenotypic activation of Vγ9Vδ2 T cells is indicated by the upregulation of CD25. Therefore, human PBMC from healthy donors (HD, n=6) were cultured with ICT01 or its isotype control (hIgG1S) used at 1 μg/mL in the presence or absence of increasing concentrations of Venetoclax (0-0.1 μM), 5-Azacytidine (0-0.4 μM) or the combination in PBMC medium (RPMI 1640 Medium supplemented with 10% FBS, 1% Penicillin/Streptomycin and 1 mM Sodium Pyruvate). Cells were harvested on day 4, centrifuged at 1800 rpm for 5 minutes and then incubated 10 minutes at room temperature (RT) with 25 μl of FcR blocking reagent (Miltenyi Biotec) before adding 25 μL of the following antibody mix prepared in PBS+2% FBS+2 mM EDTA (FACS buffer): anti-CD4-BV650, CD56-FITC, Vd2-PE, CD3-PE-CF594 and CD8-A700 antibodies for the identification of immune subsets, an anti-CD25-BV650 antibody was added to monitor activation status, and a viability marker (LIVE/DEAD™ Fixable Dead Cell Stain) was added to distinguish live from dead cells. Cells were incubated 20 minutes at 4° C. and washed 2 times in FACS buffer before flow cytometry analysis.
In a similar experiment, freshly isolated healthy donor-derived PBMC were treated with increasing concentrations of Venetoclax (0-0.1 μM), 5-Azacytidine (0-0.4 μM) or the combination for one day prior to stimulation with ICT01 or its isotype control hIgG1S for two days. Again, activation of Vγ9Vδ2T cells by ICT01 was unaffected by Venetoclax and 5-Azacytidine treatment, as indicated by the similar induction of CD25 expression in all conditions tested (Figure b).

Vγ9Vδ2 T cells [2] = test: Expression of activating and inhibitory receptors by Vγ9Vδ2 T cells in HD-PBMC; settings: for effect on ICT01-induced expression of activating and inhibitory receptors on Vγ9Vδ2 T cells: day 5, Venetoclax 0-0.1 μM, 5-Azacytidine 0-0.4 μM
Protocol: Vγ9Vδ2 T cell functions are tightly regulated by activating (NKG2D and DNAM-1) and inhibitory receptors (PD-1, NKG2A, BTLA, TIM3). To assess the impact of Venetoclax and 5-Azacytidine treatment on the expression of these receptors by Vγ9Vδ2 T cells, frozen human PBMC from healthy donors (HD, n=6) were thawed and treated with ICT01 or its isotype control (hIgG1S) used at 1 μg/mL in the presence or absence of increasing concentrations of Venetoclax (0-0.1 μM), 5-Azacytidine (0-0.4 μM) or the combination in PBMC medium (RPMI 1640 Medium supplemented with 10% FBS, 1% Penicillin/Streptomycin, 1 mM Sodium Pyruvate and 50 IU/mL IL2). Cells were harvested on day 5, centrifuged at 1800 rpm for 5 minutes and then incubated 10 minutes at RT with 25 μl of FcR blocking reagent (Miltenyi Biotec) before adding 25 μL of the following antibody mix prepared in PBS+2% FBS+2 mM EDTA (FACS buffer): anti-CD4-BUV395, Vδ2-PE, CD3-PE-CF594 and CD8-A700 antibodies for the identification of immune subsets, anti-BTLA-BV421, PD1-BV650, DNAM-1-BV785, TIM3-BB515, NKG2A-PE-Vio770 and NKG2D-APC antibodies for the detection of inhibitory and activating receptors, and a viability marker (LIVE/DEAD™ Fixable Dead Cell Stain) was added to distinguish live from dead cells. Cells were incubated 20 minutes at 4° C. and washed 2 times in FACS buffer before flow cytometry analysis.

Vγ9Vδ2 T cells [3] = test: ICT01-induced IFNγ production by Vγ9Vδ2 T cells in HD-PBMC (intracellular staining); settings: for effect on ICT01-induced IFNγ production by Vγ9Vδ2 T cells: single agent, independent of IL2
Protocol: To evaluate the effect of Venetoclax and 5-Azacytidine on cytokine production, freshly isolated human PBMC from healthy donors (HD, n=6) were cultured in PBMC medium (RPMI 1640 Medium supplemented with 10% Fetal Bovine Serum (FBS), 1% Penicillin/Streptomycin and 1 mM Sodium Pyruvate) and treated with ICT01 or its isotype control (hIgG1S) used at 1 μg/mL in the presence or absence of increasing concentrations of Venetoclax (0-0.1 μM), 5-Azacytidine (0-0.4 μM) or the combination. Half of the cells were additionally treated with 50 IU/mL IL2. Golgi Stop was added after 6-8 hours of co-culture and cells were harvested 16 h later, centrifuged at 1800 rpm for 5 minutes and then incubated 10 minutes at room temperature (RT) with 25 μl of FcR blocking reagent (Miltenyi Biotec) before adding 25 μL of the following antibody mix prepared in PBS+2% FBS+2 mM EDTA (FACS buffer): anti-CD4-BV650, Vγ9-FITC, CD3-PE-CF594, CD56-PE-Vio770 and CD8-AF700 antibodies for the identification of immune subsets, and a viability marker (LIVE/DEAD™ Fixable Dead Cell Stain) was added to distinguish live from dead cells. After 20 minutes, 100 μL of CytoFix solution (BD Bioscience) was added, and cells were incubated for 20 minutes at 4° C. 100 μL of Perm/Wash (BD Bioscience) were added, cells centrifuged and washed once in 200 μL Perm/Wash. After washing, cells were stained with anti-IFNγ-APC antibody for 30 minutes at 4° C., washed twice with Perm/Wash, and analyzed by flow cytometry.

Compound	activation of Vγ9Vδ2 T cells by ICT01 (CD25 expression) (Vγ9Vδ2 T cells [1])	effect on the ICT01-induced upregulation of CD25 by Vγ9Vδ2 T cells (Vγ9Vδ2 T cells [1]; HD-PBMC)	effect on ICT01-induced expression of activating and inhibitory receptors on Vγ9Vδ2 T cells (Vγ9Vδ2 T cells [2])	effect on ICT01-induced IFNγ production by Vγ9Vδ2 T cells (Vγ9Vδ2 T cells [3])	activation of Vγ9Vδ2 T cells: expression of CD69 and CD25 (Vγ9Vδ2 T cells [1]; HD-PBMC, 2 days, ICT01 1 μg/mL, compared to hIgG1S)	expression of activating (NKG2D, DNAM-1) and inhibitory receptors (PD-1, NKG2A, BTLA, TIM3) on Vγ9Vδ2 T cells (Vγ9Vδ2 T cells [2]; day 5, ICT01 1 μg/mL, 50 IU/mL IL2)	IFNγ production by Vγ9Vδ2 T cells (Vγ9Vδ2 T cells [3]; HD-PBMC activated with ICT01 (1 μg/mL) in presence of IL2 (50 IU/mL)) [%]	IFNγ production by Vγ9Vδ2 T cells (Vγ9Vδ2 T cells [3]; HD-PBMC activated with ICT01 alone (1 μg/mL), no IL2) [%]
CC1(C)CCC(CN2CCN(c3ccc(C(=O)NS(=O)(=O)c4ccc(NCC5CCOCC5)c([N+](=O)[O-])c4)c(Oc4cnc5[nH]ccc5c4)c3)CC2)=C(c2ccc(Cl)cc2)C1 [Venetoclax, 4-[4-[[2-(4-chlorophenyl)-4,4-dimethylcyclohexen-1-yl]methyl]piperazin-1-yl]-N-[3-nitro-4-(oxan-4-ylmethylamino)phenyl]sulfonyl-2-(1H-pyrrolo[2,3-b]pyridin-5-yloxy)benzamide]	unaffected	no effect	unaffected	no effect				
ICT01: humanized BTN3A activating antibody of mAb 7.2, heavy chain SEQ ID NO: 4, light chain SEQ ID NO: 6, silent IgG1 L247F/L248E/P350S					increased expression of CD69 and CD25	increased expression	89.1	30.4
Nc1ncn([C@@H]2O[C@H](CO)[C@@H](O)[C@H]2O)c(=O)n1 [5-Azacytidine, 4-amino-1-[(2R,3R,4S,5R)3,4-dihydroxy-5-(hydroxymethyl)oxolan-2-yl]-1,3,5-triazin-2-one]	unaffected	no effect	unaffected	no effect				

Source: patent publication US20260256909A1, “COMBINATION OF A BTN3A ACTIVATING ANTIBODY, A BCL2 INHIBITOR AND HYPOMETHYLATING AGENT FOR USE IN TREATING CANCER” (Imcheck Therapeutics, priority 2022, published 2026)
